Assay [1] addresses T1, Transient receptor potential cation channel subfamily A member 1 (Rattus norvegicus, UniProt Q6RI86). Briefly: Agonist activity at rat recombinant TRPA1 expressed in HEK293 cells assessed as increase in intracellular calcium accumulation by Fluo4-AM based assay. The assay is classed as cell-based. A general note: A change in cytosolic calcium serves as a functional read-out for many receptors and channels.

For assay [2], the target named is T2, Transient receptor potential cation channel subfamily A member 1 (Homo sapiens, UniProt O75762). In words: Antagonist activity at human recombinant TRPA1 transfected in HEK293T cells assessed as increase in Ca2+ influx by FLIPR calcium assay. The assay is classed as cell-based.
T2 sequence (O75762 whole entry): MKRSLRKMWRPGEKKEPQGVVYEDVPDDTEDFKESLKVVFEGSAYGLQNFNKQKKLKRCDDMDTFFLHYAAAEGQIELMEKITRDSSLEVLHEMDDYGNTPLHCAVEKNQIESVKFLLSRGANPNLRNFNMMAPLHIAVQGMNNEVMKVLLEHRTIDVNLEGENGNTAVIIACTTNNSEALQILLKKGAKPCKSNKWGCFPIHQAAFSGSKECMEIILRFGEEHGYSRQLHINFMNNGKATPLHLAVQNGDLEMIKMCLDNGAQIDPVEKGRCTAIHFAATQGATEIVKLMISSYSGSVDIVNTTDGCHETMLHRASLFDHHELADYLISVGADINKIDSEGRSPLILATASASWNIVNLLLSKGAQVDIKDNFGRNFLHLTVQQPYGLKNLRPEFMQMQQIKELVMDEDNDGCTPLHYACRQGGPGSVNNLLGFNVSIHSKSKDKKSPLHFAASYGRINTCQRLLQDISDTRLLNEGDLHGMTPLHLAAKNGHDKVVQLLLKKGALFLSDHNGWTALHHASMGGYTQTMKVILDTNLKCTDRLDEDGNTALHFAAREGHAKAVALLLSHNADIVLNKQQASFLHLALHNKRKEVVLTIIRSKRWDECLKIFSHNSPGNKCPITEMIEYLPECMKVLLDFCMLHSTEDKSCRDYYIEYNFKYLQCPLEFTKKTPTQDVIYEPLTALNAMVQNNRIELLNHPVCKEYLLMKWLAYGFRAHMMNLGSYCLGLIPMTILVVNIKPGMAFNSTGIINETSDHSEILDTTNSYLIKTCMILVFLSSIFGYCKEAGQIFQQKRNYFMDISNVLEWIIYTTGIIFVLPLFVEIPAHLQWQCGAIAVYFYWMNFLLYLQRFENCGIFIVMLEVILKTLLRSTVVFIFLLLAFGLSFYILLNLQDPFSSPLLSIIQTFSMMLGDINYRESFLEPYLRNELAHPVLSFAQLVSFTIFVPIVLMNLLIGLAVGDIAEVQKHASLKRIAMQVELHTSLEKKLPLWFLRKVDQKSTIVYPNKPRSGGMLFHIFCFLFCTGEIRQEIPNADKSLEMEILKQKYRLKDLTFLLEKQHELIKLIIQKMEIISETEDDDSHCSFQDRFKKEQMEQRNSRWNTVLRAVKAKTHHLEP
Assay [3] addresses T3, Transient receptor potential cation channel subfamily V member 1 (Homo sapiens, UniProt Q8NER1). Briefly: Inhibition of TRPV1 (unknown origin).
The target in assay [4] is T2, Transient receptor potential cation channel subfamily A member 1. In words: Antagonist activity at TRPA1 (unknown origin) expressed in HEK293T cells assessed as inhibition of agonist induced channel current by whole-cell patch clamp analysis. The assay is classed as cell-based. In general terms: Patch clamp records ionic current or voltage across a cell membrane.
Assay [5] has the same target. In words: Agonist activity at TRPA1 (unknown origin).
For assay [6], the target named is T4, Transient receptor potential cation channel subfamily A member 1 (Mus musculus, UniProt Q8BLA8). Briefly: Agonist activity at full length mouse TRPA1 transfected in HEK293F cells assessed as increase in Ca2+ influx by FLIPR calcium assay. The assay is classed as cell-based.
T4 sequence (Q8BLA8 whole entry): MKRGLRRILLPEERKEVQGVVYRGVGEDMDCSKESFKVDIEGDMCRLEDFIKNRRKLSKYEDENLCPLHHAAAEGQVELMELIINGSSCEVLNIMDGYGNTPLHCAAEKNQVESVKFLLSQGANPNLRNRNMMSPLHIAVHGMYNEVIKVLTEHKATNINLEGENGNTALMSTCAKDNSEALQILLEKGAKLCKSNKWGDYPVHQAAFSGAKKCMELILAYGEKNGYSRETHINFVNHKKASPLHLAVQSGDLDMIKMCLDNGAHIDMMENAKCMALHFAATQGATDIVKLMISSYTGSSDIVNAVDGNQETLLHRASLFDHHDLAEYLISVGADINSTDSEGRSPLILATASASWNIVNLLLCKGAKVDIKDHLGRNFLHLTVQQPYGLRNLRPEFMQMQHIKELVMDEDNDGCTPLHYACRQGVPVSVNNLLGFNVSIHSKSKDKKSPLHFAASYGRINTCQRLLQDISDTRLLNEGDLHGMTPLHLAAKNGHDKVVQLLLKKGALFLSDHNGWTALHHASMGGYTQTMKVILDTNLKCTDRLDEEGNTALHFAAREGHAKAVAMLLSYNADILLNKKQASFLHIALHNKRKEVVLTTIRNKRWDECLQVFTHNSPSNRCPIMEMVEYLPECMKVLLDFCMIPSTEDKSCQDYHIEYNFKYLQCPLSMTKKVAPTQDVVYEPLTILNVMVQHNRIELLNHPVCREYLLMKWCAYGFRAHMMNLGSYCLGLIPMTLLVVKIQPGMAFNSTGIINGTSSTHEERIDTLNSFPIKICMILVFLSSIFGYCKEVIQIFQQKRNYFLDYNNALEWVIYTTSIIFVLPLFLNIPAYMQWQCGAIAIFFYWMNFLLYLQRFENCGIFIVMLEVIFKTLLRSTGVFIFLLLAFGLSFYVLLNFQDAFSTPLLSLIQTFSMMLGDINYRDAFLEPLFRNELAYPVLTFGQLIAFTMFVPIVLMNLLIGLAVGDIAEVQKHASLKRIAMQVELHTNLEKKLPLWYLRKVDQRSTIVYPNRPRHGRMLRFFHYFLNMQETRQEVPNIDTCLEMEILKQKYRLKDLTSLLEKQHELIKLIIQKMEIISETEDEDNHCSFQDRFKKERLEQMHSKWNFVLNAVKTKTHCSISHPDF
Assay [7] addresses T2, Transient receptor potential cation channel subfamily A member 1. Briefly: Inhibition of TRPA1 (unknown origin).
Assay [8] has as its target T1, Transient receptor potential cation channel subfamily A member 1. In words: Agonist activity at rat TRPA1 transfected in HEK293F cells assessed as increase in Ca2+ influx by FLIPR calcium assay. The assay is classed as cell-based.
Assay [9] addresses T3, Transient receptor potential cation channel subfamily V member 1. In words: Agonist activity at human recombinant TRPV1 over expressed in HEK293 cells assessed as increase in intracellular calcium level by measuring efficacy by Fluo4-AM based assay. The class given is cell-based.
The target in assay [10] is T4, Transient receptor potential cation channel subfamily A member 1. Briefly: Antagonist activity at mouse TRPA1 expressed in HEK293F cells as increase in Ca2+ influx by FLIPR calcium assay. The class given is cell-based.

The source of these data is ChEMBL document CHEMBL5620371, “Transient receptor potential ankyrin 1 (TRPA1) modulators: Recent update and future perspective” (Eur J Med Chem, 2023).

Each structure is given as a SMILES string. Bounds are passed on as bounds.

T3 sequence (Q8NER1 whole entry): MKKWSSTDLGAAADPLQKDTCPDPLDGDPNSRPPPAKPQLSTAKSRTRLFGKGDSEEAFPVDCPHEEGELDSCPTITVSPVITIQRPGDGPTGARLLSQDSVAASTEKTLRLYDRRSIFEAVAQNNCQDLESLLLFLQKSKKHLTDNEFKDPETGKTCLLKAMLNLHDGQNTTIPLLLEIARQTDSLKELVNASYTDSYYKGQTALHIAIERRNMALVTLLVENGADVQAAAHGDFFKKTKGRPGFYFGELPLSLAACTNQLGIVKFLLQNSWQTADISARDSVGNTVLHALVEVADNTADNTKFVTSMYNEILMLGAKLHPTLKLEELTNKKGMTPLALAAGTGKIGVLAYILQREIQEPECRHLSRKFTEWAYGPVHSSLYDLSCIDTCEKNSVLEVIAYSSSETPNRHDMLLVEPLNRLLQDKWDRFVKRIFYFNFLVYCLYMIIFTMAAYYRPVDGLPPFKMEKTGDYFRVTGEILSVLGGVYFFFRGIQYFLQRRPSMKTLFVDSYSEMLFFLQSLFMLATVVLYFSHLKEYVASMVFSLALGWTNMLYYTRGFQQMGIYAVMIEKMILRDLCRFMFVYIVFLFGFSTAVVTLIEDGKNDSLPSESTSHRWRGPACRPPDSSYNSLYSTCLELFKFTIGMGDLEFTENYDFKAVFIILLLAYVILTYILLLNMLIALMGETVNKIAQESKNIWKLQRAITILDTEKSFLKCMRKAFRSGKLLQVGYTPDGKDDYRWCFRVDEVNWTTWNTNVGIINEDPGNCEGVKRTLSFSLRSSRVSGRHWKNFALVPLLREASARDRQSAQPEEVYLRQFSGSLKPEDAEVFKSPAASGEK
T1 sequence (Q6RI86 whole entry): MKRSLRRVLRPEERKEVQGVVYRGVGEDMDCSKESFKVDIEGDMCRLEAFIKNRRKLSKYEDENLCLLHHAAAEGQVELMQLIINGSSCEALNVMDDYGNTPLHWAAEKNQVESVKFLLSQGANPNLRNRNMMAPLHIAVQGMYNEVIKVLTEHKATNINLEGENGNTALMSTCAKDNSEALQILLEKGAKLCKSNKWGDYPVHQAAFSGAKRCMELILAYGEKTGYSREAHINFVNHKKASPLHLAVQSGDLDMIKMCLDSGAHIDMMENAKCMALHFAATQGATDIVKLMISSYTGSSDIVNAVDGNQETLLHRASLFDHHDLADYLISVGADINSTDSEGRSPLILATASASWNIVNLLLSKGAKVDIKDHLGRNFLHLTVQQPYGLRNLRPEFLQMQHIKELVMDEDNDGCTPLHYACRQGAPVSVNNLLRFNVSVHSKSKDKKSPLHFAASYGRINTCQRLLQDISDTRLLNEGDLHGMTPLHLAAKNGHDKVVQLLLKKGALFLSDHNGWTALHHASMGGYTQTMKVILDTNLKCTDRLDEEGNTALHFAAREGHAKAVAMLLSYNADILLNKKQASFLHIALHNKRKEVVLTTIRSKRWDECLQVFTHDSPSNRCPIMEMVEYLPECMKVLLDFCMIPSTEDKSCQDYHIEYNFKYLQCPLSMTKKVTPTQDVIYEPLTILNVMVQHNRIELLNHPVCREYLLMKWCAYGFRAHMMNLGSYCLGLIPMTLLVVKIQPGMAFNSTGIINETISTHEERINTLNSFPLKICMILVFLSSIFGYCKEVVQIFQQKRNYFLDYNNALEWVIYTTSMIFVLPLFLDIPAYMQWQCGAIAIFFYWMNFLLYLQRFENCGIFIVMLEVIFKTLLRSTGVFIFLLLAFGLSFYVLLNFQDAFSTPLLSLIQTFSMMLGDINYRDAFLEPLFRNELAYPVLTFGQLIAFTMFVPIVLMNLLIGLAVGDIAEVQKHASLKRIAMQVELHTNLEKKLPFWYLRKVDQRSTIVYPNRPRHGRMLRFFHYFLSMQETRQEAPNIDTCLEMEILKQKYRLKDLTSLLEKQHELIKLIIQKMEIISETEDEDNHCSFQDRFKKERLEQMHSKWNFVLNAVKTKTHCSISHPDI

Usually IC50 stands for the concentration that inhibits the measured activity by half. As for `CC(C)CN1C(=O)/C(=C/C(=O)O)c2cccc(F)c21`, the IC50 in assay [1] worked out at 0.51 µM. A word on the EC50: it is the midpoint of the concentration-response curve. Turning to `O=NN1[C@@H]2c3ccccc3[C@H]1[C@@H](C(F)(F)F)C2C(F)(F)F` (stereo partly specified), in [2], the EC50 worked out at 5.63 µM. For `CC(C)c1cc(CCC(=O)CC(O)Cc2ccccc2)cc(C(C)C)c1O` (stereo unspecified), the IC50 in assay [3] is above 50 µM.

Take `O=C(CCc1ccc2c(c1)OCO2)CC(O)CCCCCCc1ccccc1` (stereo unspecified): the half-maximal inhibitory concentration (IC50) in assay [3] is above 10 µM.

On to `O=C(CCc1ccccc1)CC(O)CCCCCCc1ccccc1` (stereo unspecified), for which, in [3], the 50% inhibitory concentration (IC50) is above 10 µM. With `C[n+]1cc2c3c(ccc2c2ccc4cc5c(cc4c21)OCO5)OCO3`, the EC50 in assay [4] was found to be 0.09 µM. As to `COCCCN(C(=O)CCl)c1nc(-c2ccc(OC)cc2)cs1`, the EC50 in assay [5] came to 0.00065 µM. Consider `O=C(O)CCCCCCCCCO`, for which the EC50 in assay [6] turned out to be 510 µM. `O=C(CCc1ccccc1)CC(O)Cc1ccccc1` (stereo unspecified): the IC50 was 4.5 µM in [7] and above 50 µM in assay [3]. As to `Cn1cnc2ncn(Cc3nc([C@@H]4CO[C@@H](c5ccc(F)cc5)C4)no3)c(=O)c21`, in [8], the IC50 came out at 0.007 µM.

For `O=C(O)/C=C/CCCCCCCO`, the EC50 in assay [6] is 422 µM. `C[C@@H](N)[C@@H](O)C/C=C\C/C=C\C/C=C\C/C=C\C/C=C\C/C=C\CCCCCC[C@H](O)[C@@H](C)N` [LEUCETTAMOL A]: in assay [9], the 50% effective concentration (EC50) worked out at 3.7 µM.

For the compound `CCC/C=C1\OC(=O)C2=C1CCC=C2` [LIGUSTILIDE], in assay [10], the EC50 was 44 µM.

Take `O=C1C[C@@H](c2ccc(O[C@@H]3O[C@H](CO)[C@@H](O)[C@H](O)[C@H]3O)cc2)Oc2cc(O)ccc21` [LIQUIRITIN]: in [7], the IC50 came out at 16.2 µM. Regarding `CCC/C=C1\OC(=O)c2ccccc21` [Z-butylidenephthalide], the half-maximal effective concentration (EC50) in assay [6] stood at 539 µM.
